According to US20230391772A1, “METHODS AND COMPOSITIONS FOR TARGETED PROTEIN DEGRADATION” (Ranok Therapeutics (Hangzhou) Co. Ltd., priority 2020, published 2023):

How the values were obtained:
KRAS(G12C) = KRAS(G12C) (Homo sapiens, UniProt P01116, G12C); experiment: KRAS(G12C)/SOS1 homogeneous time-resolved fluorescence (HTRF) assay; set-up: purchased Cisbio 63ADK000CB16PEG; conditions: absence of GTP, 4° C. for 3 hr, read-out: KRAS (G12C) binding
Procedure, shortened: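 HTRF kit measuring compound-induced block of KRAS(G12C)-SOS1 interaction without GTP. Compounds tested as 3-fold serial dilutions down to 1.02 nM, incubated with reaction components 3 h at 4 °C in sealed plates before fluorescence read.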

HSP90a protein = target: T1, HSP90a protein (Homo sapiens, UniProt P07900); experiment: HSP90α-binding fluorescent polarization (FP) assay, BODIPY-labeled RNK04010 probe; conditions: FP competition with RNK04010 (BODIPY-labeled), 5 nM, 300 min at 25° C.
T1 construct: purchased BPS Bioscience 50298
Procedure, shortened: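 Competitive FP with N-terminal HSP90a; probe at 5 nM final, either BODIPY-labeled triazolone RNK04010 or FITC-geldanamycin. Test compounds as 2.5-fold dilutions from 20 μM to 5.2 nM. Incubated at 25 °C for 300 min (RNK04010) or 120 min (FITC-geldanamycin) before reading polarization.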

[1] = tested on: MIA PaCa-2 human pancreatic carcinoma; experiment: MIA PaCa-2 CCK-8 proliferation assay; format: cell-based; conditions: Homo sapiens, MIA PaCa-2, 72 h, MIA PaCa-2 cells
Procedure, shortened: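 KRAS(G12C) lines were used: MIA PaCa-2 with 2 copies, and NCI-H358 and NCI-H23 with 1 copy each. Cells were treated with 3-fold compound dilutions from 20 μM to 1.02 nM, and proliferation was read by CCK-8 absorbance. % inhibition was calculated against DMSO-treated cells after subtracting the cell-free medium blank.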

KRAS(G12C), sequence (P01116 1-188 isoform P01116-2 G12C): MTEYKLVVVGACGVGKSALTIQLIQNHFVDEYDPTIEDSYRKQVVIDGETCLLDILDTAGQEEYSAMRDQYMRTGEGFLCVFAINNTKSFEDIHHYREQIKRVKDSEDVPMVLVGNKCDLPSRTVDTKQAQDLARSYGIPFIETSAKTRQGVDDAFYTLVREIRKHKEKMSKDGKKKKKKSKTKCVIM

SMILES: C=CC(=O)N1CCN(c2nc(OC[C@@H]3CC[C@H](CN4CCN(C(=O)C5CCN(Cc6ccc(-n7c(O)nnc7-c7cc(C(C)C)c(O)cc7O)cc6)CC5)CC4)N3C)nc3c2CCN(c2cccc4cccc(Cl)c24)C3)C[C@@H]1CC#N [Compound 313, 2-[(2S)-4-[7-(8-chloronaphthalen-1-yl)-2-{[(2S,5R)-5-({4-[1-({4-[3-(2,4-dihydroxy-5-isopropylphenyl)-5-hydroxy-1,2,4-triazol-4-yl]phenyl}methyl)piperidine-4-carbonyl]piperazin-1-yl}methyl)-1-methylpyrrolidin-2-yl]methoxy}-5H,6H,8H-pyrido [3,4-d]pyrimidin-4-yl]-1-(prop-2-enoyl)piperazin-2-yl]acetonitrile]
- IC50 (KRAS(G12C)): < 100 nM
- IC50 (HSP90a protein): < 100 nM
- EC50 [1]: < 100 nM

SMILES: C=CC(=O)N1CCN(c2nc(OC[C@@H]3C[C@H](N4CCC(C(=O)N5CCN(Cc6ccc(-n7c(C(=O)NCC(F)(F)F)nnc7-c7cc(C(C)C)c(O)cc7O)cc6)CC5)CC4)CN3C)nc3c2CCN(c2cccc4cccc(Cl)c24)C3)C[C@@H]1CC#N [Compound 314, 4-{4-[(4-{1-[(3S,5S)-5-({[7-(8-chloronaphthalen-1-yl)-4-[(3S)-3-(cyanomethyl)-4-(prop-2-enoyl)piperazin-1-yl]-5H,6H,8H-pyrido[3,4-d]pyrimidin-2-yl]oxy}methyl)-1-methylpyrrolidin-3-yl]piperidine-4-carbonyl}piperazin-1-yl)methyl]phenyl}-5-(2,4-dihydroxy-5-isopropylphenyl)-N-(2,2,2-trifluoroethyl)-1,2,4-triazole-3-carboxamide]
- IC50 (KRAS(G12C)): < 100 nM
- IC50 (HSP90a protein): < 100 nM
- EC50 [1]: < 100 nM

SMILES: C=CC(=O)N1CCN(c2nc(OC[C@@H]3C[C@H](NC(=O)C4CCN(C(=O)c5ccc(-n6c(O)nnc6-c6cc(C(C)C)c(O)cc6O)cc5)CC4)CN3C)nc3c2CCN(c2cccc4cccc(Cl)c24)C3)C[C@@H]1CC#N [Compound 315, N-[(3S,5S)-5-({[7-(8-chloronaphthalen-1-yl)-4-[(3S)-3-(cyanomethyl)-4-(prop-2-enoyl)piperazin-1-yl]-5H,6H,8H-pyrido[3,4-d]pyrimidin-2-yl]oxy}methyl)-1-methylpyrrolidin-3-yl]-1-{4-[3-(2,4-dihydroxy-5-isopropylphenyl)-5-hydroxy-1,2,4-triazol-4-yl]benzoyl}piperidine-4-carboxamide]
- IC50 (KRAS(G12C)): < 100 nM
- IC50 (HSP90a protein): < 100 nM
- EC50 [1]: > 1000 nM

SMILES: C=CC(=O)N1CCN(c2nc(OC[C@@H]3C[C@H](N4CCC(C(=O)N5CCN(Cc6ccc(-n7c(O)nnc7-c7cc(C(C)C)c(O)cc7O)cc6)CC5)CC4)CN3C)nc3c2CCN(c2cccc4cccc(Cl)c24)C3)C[C@@H]1CC#N [Compound 317, 2-[(2S)-4-[7-(8-chloronaphthalen-1-yl)-2-{[(2S,4S)-4-{4-[4-({4-[3-(2,4-dihydroxy-5-isopropylphenyl)-5-hydroxy-1,2,4-triazol-4-yl]phenyl}methyl)piperazine-1-carbonyl]piperidin-1-yl}-1-methylpyrrolidin-2yl]methoxy}-5H,6H,8H-pyrido[3,4-d]pyrimidin-4-yl]-1-(prop-2-enoyl)piperazin-2-yl]acetonitrile]
- IC50 (KRAS(G12C)): < 100 nM
- IC50 (HSP90a protein): < 100 nM
- EC50 [1]: 100 to 1000 nM

SMILES: C=CC(=O)N1CCN(c2nc(OC[C@@H]3C[C@H](N4CCC5(CCN(C(=O)C6CCN(Cc7ccc(-n8c(O)nnc8-c8cc(C(C)C)c(O)cc8O)cc7)CC6)CC5)CC4)CN3C)nc3c2CCN(c2cccc4cccc(Cl)c24)C3)C[C@@H]1CC#N [Compound 318, 2-[(2S)-4-[7-(8-chloronaphthalen-1-yl)-2-{[(2S,4S)-4-{9-[1-({4-[3-(2,4-dihydroxy-5-isopropylphenyl)-5-hydroxy-1,2,4-triazol-4-yl]phenyl}methyl)piperidine-4-carbonyl]-3,9-diazaspiro[5.5]undecan-3-yl}-1-methylpyrrolidin-2-yl]methoxy}-5H,6H,8H-pyrido[3,4-d]pyrimidin-4-yl]-1-(prop-2-enoyl)piperazin-2-yl]acetonitrile]
- IC50 (KRAS(G12C)): < 100 nM
- IC50 (HSP90a protein): < 100 nM
- EC50 [1]: 100 to 1000 nM

SMILES: C=CC(=O)N1CCN(c2nc(OC[C@@H]3C[C@H](N4CCC(C(=O)N5CCN(CCNC(=O)c6nnc(-c7cc(C(C)C)c(O)cc7O)n6-c6ccccc6)CC5)CC4)CN3C)nc3c2CCN(c2cccc4cccc(Cl)c24)C3)C[C@@H]1CC#N [Compound 320, N-[2-(4-{1-[(3S,5S)-5-({[7-(8-chloronaphthalen-1-yl)-4-[(3S)-3-(cyanomethyl)-4-(prop-2-enoyl)piperazin-1-yl]-5H,6H,8H-pyrido[3,4-d]pyrimidin-2-yl]oxy}methyl)-1-methylpyrrolidin-3-yl]piperidine-4-carbonyl}piperazin-1-yl)ethyl]-5-(2,4-dihy-droxy-5-isopropylphenyl)-4-phenyl-1,2,4-triazole-3-carboxamide]
- IC50 (KRAS(G12C)): < 100 nM
- IC50 (HSP90a protein): < 100 nM
- EC50 [1]: 100 to 1000 nM

SMILES: C=CC(=O)N1CCN(c2nc(OC[C@@H]3C[C@H](N4CCC(C(=O)N5CCN(Cc6ccc(-n7c(O)nnc7-c7cc(C)c(O)cc7O)cc6)CC5)CC4)CN3C)nc3c2CCN(c2cccc4cccc(Cl)c24)C3)C[C@@H]1CC#N [Compound 321, 2-[(2S)-4-[7-(8-chloronaphthalen-1-yl)-2-{[(2S,4S)-4-{4-[4-({4-[3-(2,4-dihydroxy-5-methylphenyl)-5-hydroxy-1,2,4-triazol-4-yl]phenyl}methyl)piperazine-1-carbonyl]piperidin-1-yl}-1-methylpyrrolidin-2-yl]methoxy}-5H,6H,8H-pyrido[3,4d]-pyrimidin-4-yl]-1-(prop-2-enoyl)piperazin-2-yl]acetonitrile]
- IC50 (KRAS(G12C)): < 100 nM
- IC50 (HSP90a protein): < 100 nM
- EC50 [1]: 100 to 1000 nM

SMILES: C=CC(=O)N1CCN(c2nc(OC[C@@H]3C[C@H](N4CCC(C(=O)N5CCN(Cc6ccc(-n7c(C(=O)NCC(F)(F)C(F)(F)F)nnc7-c7cc(C(C)C)c(O)cc7O)cc6)CC5)CC4)CN3C)nc3c2CCN(c2cccc4cccc(Cl)c24)C3)C[C@@H]1CC#N [Compound 323]
- IC50 (KRAS(G12C)): < 100 nM
- IC50 (HSP90a protein): < 100 nM
- EC50 [1]: < 100 nM

SMILES: C=CC(=O)N1CCN(c2nc(OC[C@@H]3CC[C@H](C(=O)N4CCN(Cc5ccc(-n6c(O)nnc6-c6cc(C(C)C)c(O)cc6O)cc5)CC4)N3C)nc3c2CCN(c2cccc4cccc(Cl)c24)C3)C[C@@H]1CC#N [Compound 324, 2-[(2S)-4-[7-(8-chloronaphthalen-1-yl)-2-{[(2S,5R)-5-[4-({4-[3-(2,4-dihydroxy-5-isopropylphenyl)-5-hydroxy-1,2,4-triazol-4-yl]phenyl}methyl)piperazine-1-carbonyl]-1-methylpyrrolidin-2-yl]methoxy}-5H,6H,8H-pyrido[3,4-d]pyrimidin-4-yl]-1-(prop-2-enoyl)piperazin-2-yl]acetonitrile]
- IC50 (KRAS(G12C)): 100 to 1000 nM
- IC50 (HSP90a protein): < 100 nM
- EC50 [1]: 100 to 1000 nM

SMILES: C=CC(=O)N1CCN(c2nc(OC[C@@H]3CC[C@H](C(=O)N4CCN(Cc5ccc(-n6c(O)nnc6-c6cc(C)c(O)cc6O)cc5)CC4)N3C)nc3c2CCN(c2cccc4cccc(Cl)c24)C3)C[C@@H]1CC#N [Compound 325, 2-[(2S)-4-[7-(8-chloronaphthalen-1-yl)-2-{[(2S,5R)-5-[4-({4-[3-(2,4-dihydroxy-5-methylphenyl)-5-hydroxy-1,2,4-triazol-4-yl]phenyl}methyl)piperazine-1-carbonyl]-1-methylpyrrolidin-2-yl]methoxy}-5H,6H,8H-pyrido[3,4-d]pyrimidin-4-yl]-1-(prop-2-enoyl)piperazin-2-yl]acetonitrile]
- IC50 (KRAS(G12C)): < 100 nM
- IC50 (HSP90a protein): < 100 nM
- EC50 [1]: > 1000 nM

SMILES: C=CC(=O)N1CCN(c2nc(OC[C@@H]3C[C@H](N4CCC(C(=O)N5CCN(Cc6ccc(-n7c(C(=O)NCCN8CCN(S(C)(=O)=O)CC8)nnc7-c7cc(C(C)C)c(O)cc7O)cc6)CC5)CC4)CN3C)nc3c2CCN(c2cccc4cccc(Cl)c24)C3)C[C@@H]1CC#N [Compound 327, 4-{4-[(4-{1-[(3S,5S)-5-({[7-(8-chloronaphthalen-1-yl)-4-[(3S)-3-(cyanomethyl)-4-(prop-2-enoyl)piperazin-1-yl]-5H,6H,8H-pyrido[3,4-d]pyrimidin-2-yl]oxy}methyl)-1-methylpyrrolidin-3-yl]piperidine-4-carbonyl}piperazin-1-yl)methyl]phenyl}-5-(2,4-dihydroxy-5-isopropylphenyl)-N-[2-(4-methanesulfonylpiperazin-1-yl)ethyl]-1,2,4-triazole-3-carboxamide]
- IC50 (KRAS(G12C)): < 100 nM
- IC50 (HSP90a protein): < 100 nM
- EC50 [1]: 100 to 1000 nM

SMILES: C=CC(=O)N1CCN(c2nc(OC[C@@H]3C[C@H](N4CCC(C(=O)NCCc5ccc(-n6c(O)nnc6-c6cc(C(C)C)c(O)cc6O)cc5)CC4)CN3C)nc3c2CCN(c2cccc4cccc(Cl)c24)C3)C[C@@H]1CC#N [Compound 328, 1-[(3S,5S)-5-({[7-(8-chloronaphthalen-1-yl)-4-[(3S)-3-(cyanomethyl)-4-(prop-2-enoyl)piperazin-1-yl]-5H,6H,8H-pyrido[3,4-d]pyrimidin-2-yl]oxy}methyl)-1-methylpyrrolidin-3-yl]-N-(2-{4-[3-(2,4-dihydroxy-5-isopropylphenyl)-5-hydroxy-1,2,4-triazol-4-yl]phenyl}ethyl)piperidine-4-carboxamide]
- IC50 (KRAS(G12C)): < 100 nM
- IC50 (HSP90a protein): < 100 nM
- EC50 [1]: > 1000 nM
